Measurements reported in patent publication EP1608360B1, “SYNERGISTIC HEPATOPROTECTIVE COMPOSITION AND A METHOD THEREOF” (COUNCIL OF SCIENTIFIC AND INDUSTRIAL RESEARCH, priority 2003, dated 2004).
Where “and” joins values, the source holds several entries; their conditions need not be identical. Equal entries are not always repeated. Where two headings read alike, the source gives them in different places.

Tests used:
[1] = After 72 hrs; cited from earlier work
[2] = test system: Paracetamol (APAP) induced hepatic injury; type: in vivo; settings: Table-2
Method: […] Formulation is extremely safe having a therapeutic index of > 40. No mortality was recorded upto a dose of 2g-kg-1 p.o. in mice.
Table-2: Hepatoprotective potential of Andrographolide (AP) against Paracetamol (APAP) induced hepatic injury in Rodents (prophylactic). […]

[3] = test system: paracetamol (APAP) induced hepatic injury; assay: Hepatoprotective activity (in vivo) against paracetamol (APAP) induced hepatic injury in mice, prophylactic study (Table 1); settings: 50 mg/kg p.o. + APAP
Method: All the list materials were administered P.O. routes in a uniform dose level of 50 mg kg-1. Formulation is extremely safe having a therapeutic index of > 40. No mortality was recorded upto a dose of 2g-kg-1 p.o. in mice.
• Fig.1 Low Power view 10 X of bridging necroses • Fig.2 High Power view 40X of bridging necroses • Fig.3 High Power view 40X of centrilobular necrosis • Fig.4 Lower Power view 10X of centrilobular necrosis • Fig.5 Effect of paracetamol on liver when given along with high doses of hepatoprotective formulations • Fig.6 Ballooning degeneration of cells along with cytoplasmic rarefaction clearing Table 1: Hepatoprotective activity (in vivo) of synergistic formulation and Silymarin agains paracetamol (APAP) induced hepatic injury in mice2. (prophylactic study)

[4] = test system: Acetaminophen (APAP) induced hepatic injury; assay: Hepatoprotective activity (in vivo), pre-treatment, diethyl-ether inhalation plus Acetaminophen (APAP), prophylactic study (Table 4); set-up: species or system Mice: Swiss albino; settings: 50 mg/kg p.o. at 72h, 48h, 24h, 1h before diethyl-ether and 1h after APAP 200mg/kg i.p.
Method: Table-4: Hepatoprotective activity (in vivo) of TCA and silymarin (Pre-treatment) fed at 72h, 48h, 24h, 1h before inhalation of diethyl - ether and 1h after Acetaminophen (APAP) 200mg/kg given i.p. 6h after exposure to diethyl - ether (prophylactic study).

[5] = 6.25 mg kg^-1 + APAP, prophylactic
[6] = 12.5 mg kg^-1 + APAP, prophylactic
[7] = 25 mg kg^-1 + APAP, prophylactic
[8] = 50 mg kg^-1 + APAP, prophylactic
[9] = 50 mg kg^-1 + APAP, prophylactic, listed as Andrographolide
[10] = 50 mg kg^-1 + APAP, prophylactic, listed as andrographolide
[11] = 50 mg kg^-1 only (per se), no APAP
[12] = 100 mg kg^-1 + APAP, prophylactic

C=C1CC[C@@H]2[C@](C)(CO)[C@H](O)CC[C@@]2(C)[C@@H]1C/C=C1/C(=O)OC[C@H]1O [AP, andrographolide]
excreted, mostly by urinary excretion [1]: ~90%
Hepatic GSH (glutathione) [2, 5]: 2.85±0.19 µ mole GSH/g liver
Hepatic GSH, percent hepatoprotective activity [2, 5]: (17.40) %
Hepatic LP (lipid peroxidation) [2, 5]: 58.96±2.04 n mole MDA/g liver
Hepatic LP, percent hepatoprotective activity [2, 5]: (10.61) %
Hepatic Protein [2, 5]: 133.20±5.39 mg %
Hepatic Protein, percent hepatoprotective activity [2, 5]: (6.75) %
Serum ALP [2, 5]: 55.84±2.27 µ mole of p-nitrophenol formed /min/L
Serum ALP, percent hepatoprotective activity [2, 5]: (18.49) %
Serum Albumin [2, 5]: 3.10±0.08 g %
Serum Albumin, percent hepatoprotective activity [2, 5]: (32.84) %
Serum GOT [2, 5]: 992.69±66.36 Units
Serum GOT, percent hepatoprotective activity [2, 5]: (14.54) %
Serum GPT [2, 5]: 1224.99±63.65 Units
Serum GPT, percent hepatoprotective activity [2, 5]: (20.76) %
Serum LDH [2, 5]: 1454.48±66.02 units
Serum LDH, percent hepatoprotective activity [2, 5]: (25.45) %
Serum TG [2, 5]: 63.92±2.11 mg %
Serum TG, percent hepatoprotective activity [2, 5]: (24.17) %
Hepatic GSH (glutathione) [2, 6]: 3.78±0.19 µ mole GSH/g liver
Hepatic GSH, percent hepatoprotective activity [2, 6]: (40.19) %
Hepatic LP (lipid peroxidation) [2, 6]: 53.10±2.07 n mole MDA/g liver
Hepatic LP, percent hepatoprotective activity [2, 6]: (46.23) %
Hepatic Protein [2, 6]: 141.36±4.25 mg %
Hepatic Protein, percent hepatoprotective activity [2, 6]: (23.52) %
Serum ALP [2, 6]: 49.41±1.35 µ mole of p-nitrophenol formed /min/L
Serum ALP, percent hepatoprotective activity [2, 6]: (37.13) %
Serum Albumin [2, 6]: 3.29±0.15 g %
Serum Albumin, percent hepatoprotective activity [2, 6]: (47.02) %
Serum GOT [2, 6]: 816.54±47.10 Units
Serum GOT, percent hepatoprotective activity [2, 6]: (32.07) %
Serum GPT [2, 6]: 1051.99±46.30 Units
Serum GPT, percent hepatoprotective activity [2, 6]: (33.12) %
Serum LDH [2, 6]: 1255.65±61.32 units
Serum LDH, percent hepatoprotective activity [2, 6]: (37.14) %
Serum TG [2, 6]: 56.59±2.42 mg %
Serum TG, percent hepatoprotective activity [2, 6]: (41.39) %
Hepatic GSH (glutathione) [2, 7]: 4.15±0.15 µ mole GSH/g liver
Hepatic GSH, percent hepatoprotective activity [2, 7]: (49.26) %
Hepatic LP (lipid peroxidation) [2, 7]: 50.62±2.23 n mole MDA/g liver
Hepatic LP, percent hepatoprotective activity [2, 7]: (51.45) %
Hepatic Protein [2, 7]: 148.36±3.57 mg %
Hepatic Protein, percent hepatoprotective activity [2, 7]: (37.92) %
Serum ALP [2, 7]: 43.92±2.19 µ mole of p-nitrophenol formed /min/L
Serum ALP, percent hepatoprotective activity [2, 7]: (53.04) %
Serum Albumin [2, 7]: 3.32±0.15 g %
Serum Albumin, percent hepatoprotective activity [2, 7]: (49.25) %
Serum GOT [2, 7]: 720.76±50.62 Units
Serum GOT, percent hepatoprotective activity [2, 7]: (41.40) %
Serum GPT [2, 7]: 881.23±36.85 Units
Serum GPT, percent hepatoprotective activity [2, 7]: (45.45) %
Serum LDH [2, 7]: 1014.27±44.04 units
Serum LDH, percent hepatoprotective activity [2, 7]: (51.34) %
Serum TG [2, 7]: 51.68±2.73 mg %
Serum TG, percent hepatoprotective activity [2, 7]: (52.92) %
Hepatic GSH (glutathione) [2, 8]: 4.400±0.25 µ mole GSH/g liver
Hepatic GSH, percent hepatoprotective activity [2, 8]: (57.35) %
Hepatic LP (lipid peroxidation) [2, 8]: 47.90±1.93 n mole MDA/g liver
Hepatic LP, percent hepatoprotective activity [2, 8]: (58.35) %
Hepatic Protein [2, 8]: 155.34±3.11 mg %
Hepatic Protein, percent hepatoprotective activity [2, 8]: (52.27) %
Serum ALP [2, 8]: 40.18±2.03 µ mole of p-nitrophenol formed /min/L
Serum ALP, percent hepatoprotective activity [2, 8]: (63.88) %
Serum Albumin [2, 8]: 3.55±0.18 g %
Serum Albumin, percent hepatoprotective activity [2, 8]: (66.41) %
Serum GOT [2, 8]: 534.56±19.65 Units
Serum GOT, percent hepatoprotective activity [2, 8]: (60.14) %
Serum GPT [2, 8]: 760.73±49.35 Units
Serum GPT, percent hepatoprotective activity [2, 8]: (54.15) %
Serum LDH [2, 8]: 952.45±34.82 units
Serum LDH, percent hepatoprotective activity [2, 8]: (54.97) %
Serum TG [2, 8]: 49.22±1.78 mg %
Serum TG, percent hepatoprotective activity [2, 8]: (58.70) %
Hepatic GSH, percent hepatoprotective activity [2, 9]: 57.35%
Hepatic LP, percent hepatoprotective activity [2, 9]: 58.35%
Hepatic Protein, percent hepatoprotective activity [2, 9]: 52.27%
Serum ALP, percent hepatoprotective activity [2, 9]: 63.88%
Serum Albumin, percent hepatoprotective activity [2, 9]: 66.41%
Serum GOT, percent hepatoprotective activity [2, 9]: 60.14%
Serum GPT, percent hepatoprotective activity [2, 9]: 54.15%
Serum LDH, percent hepatoprotective activity [2, 9]: 54.97%
Serum TG, percent hepatoprotective activity [2, 9]: 58.70%
Hepatic GSH, percent hepatoprotective activity [2, 10]: 57.35%
Hepatic LP, percent hepatoprotective activity [2, 10]: 58.35% and 55.35%
Serum ALP, percent hepatoprotective activity [2, 10]: 63.88%
Serum Albumin, percent hepatoprotective activity [2, 10]: 66.41%
Serum GOT, percent hepatoprotective activity [2, 10]: 60.14%
Serum GPT, percent hepatoprotective activity [2, 10]: 54.15%
Serum LDH, percent hepatoprotective activity [2, 10]: 54.97%
Serum TG, percent hepatoprotective activity [2, 10]: 58.70%
Hepatic GSH (glutathione) [2, 11]: 6.40±0.21 µ mole GSH/g liver
Hepatic LP (lipid peroxidation) [2, 11]: 31.60±2.09 n mole MDA/g liver
Hepatic Protein [2, 11]: 182.05±10.23 mg %
Serum ALP [2, 11]: 27.72±2.71 µ mole of p-nitrophenol formed /min/L
Serum Albumin [2, 11]: 3.96±0.08 g %
Serum GOT [2, 11]: 134.92±4.25 Units
Serum GPT [2, 11]: 126.11±3.09 Units
Serum LDH [2, 11]: 181.02±10.29 units
Serum TG [2, 11]: 32.29±2.31 mg %
Hepatic GSH (glutathione) [2, 12]: 4.60±0.24 µ mole GSH/g liver
Hepatic GSH, percent hepatoprotective activity [2, 12]: (60.29) %
Hepatic LP (lipid peroxidation) [2, 12]: 45.30±2.08 n mole MDA/g liver
Hepatic LP, percent hepatoprotective activity [2, 12]: (64.95) %
Hepatic Protein [2, 12]: 146.78±5.09 mg %
Hepatic Protein, percent hepatoprotective activity [2, 12]: (34.66) %
Serum ALP [2, 12]: 44.14±2.24 µ mole of p-nitrophenol formed /min/L
Serum ALP, percent hepatoprotective activity [2, 12]: (52.40) %
Serum Albumin [2, 12]: 3.38±0.26 g %
Serum Albumin, percent hepatoprotective activity [2, 12]: (53.73) %
Serum GOT [2, 12]: 795.92±27.59 Units
Serum GOT, percent hepatoprotective activity [2, 12]: (34.12) %
Serum GPT [2, 12]: 764.37±44.32 Units
Serum GPT, percent hepatoprotective activity [2, 12]: (53.89) %
Serum LDH [2, 12]: 1256.05±33.97 units
Serum LDH, percent hepatoprotective activity [2, 12]: (37.11) %
Serum TG [2, 12]: 47.39±2.13 mg %
Serum TG, percent hepatoprotective activity [2, 12]: (63.00) %

CCCCCCCC/C=C/CCCCCCCCCCCCCC(=O)O [TCA, trans-tetracos-15-enoic acid]
Hepatic Glutathione, percent hepatoprotective activity [3]: 53.15%
Hepatic Lipid peroxidation, percent hepatoprotective activity [3]: 64.15%
Serum ALP, percent hepatoprotective activity [3]: 82.35%
Serum GOT, percent hepatoprotective activity [3]: 62.00%
Serum GPT, percent hepatoprotective activity [3]: 75.00%
Serum Triglycerides, percent hepatoprotective activity [3]: 66.45%
Hepatic Lipid peroxidation [4]: 55.48 n moles MDA/g liver
Serum ALP [4]: 52.96 µ mole of p-nitrophenol formed/min/ L
Serum Bilirubin [4]: 56.35 mg %
Serum GOT [4]: 54.92 Units
Serum GPT [4]: 57.99 Units
Serum Triglycerides [4]: 66.05 mg %
Serum ALP ([4]; listed as t-tca): 52.96 µ mole of p-nitrophenol formed
